From the SangsterLogP compilation

Key:
[1] = method code SF-AS, from DOI: 10.3109/03639048709068705
[2] = from Ganellin, C.; Brown, T.; Griffiths, R.; Jones, M.; Mitchell, C.; Rana, K.; Saunders, D.; Smith, I.; Sore, E.; Wilks, J.; Young, R. (1991). Use of partition coefficients as a model for brain …
[3] = method code SF, from DOI: 10.1021/jm00294a005, PMID: 5000561
[4] = method code SF-AS, from DOI: 10.1016/s0020-1693(00)85781-3
[5] = not given; remark: listed apart in the source
[6] = method code SF-HPLC, from PMID: 9554875; conditions: pH 6.8
[7] = method code SF-HPLC, from DOI: 10.1016/j.bmc.2015.09.009, PMID: 26385444
[8] = method code SF-AS, from DOI: 10.1016/0378-5173(85)90003-1
[9] = not given; remark: listed apart in the source
[10] = method code SF-AS, from DOI: 10.1021/jm00234a001, PMID: 1003419
[11] = not given; remark: listed apart in the source
[12] = method code SF-HPLC, from DOI: 10.1248/cpb.47.1081, PMID: 10478463; conditions: pH 6.5
[13] = method code SF-HPLC, from DOI: 10.1016/0731-7085(91)80215-u, PMID: 1821151; conditions: pH 7.4
[14] = method code SF-RC, from DOI: 10.1016/j.nucmedbio.2014.05.001, PMID: 24969632; conditions: pH 7.4
[15] = method code SF-HPLC, from DOI: 10.1016/s0223-5234(98)80037-8; conditions: pH 7.4
[16] = method code SF-AS, from DOI: 10.1002/ardp.19853180604, PMID: 4026543; conditions: pH 7.4
[17] = method code SF-HPLC, from DOI: 10.1016/s0024-3205(00)00615-9, PMID: 10901288; conditions: pH 5.0
[18] = not given; remark: listed apart in the source
[19] = method code SF-AS, from DOI: 10.1248/bpb1978.4.759, PMID: 7320829
[20] = not given; remark: listed apart in the source
[21] = not given; remark: listed apart in the source
[22] = method code SF-RC, from DOI: 10.1016/j.nucmedbio.2007.12.005, PMID: 18355688; conditions: pH 7.4

Work on CCCCC(=O)OC(CNC(C)C)COc1cccc2ccccc12 (stereo not drawn) yielded a logP [1] of 6.3.

For COc1ccc2cc(C(C)C(=O)OCC3COC(C)(C)O3)ccc2c1 (stereo not drawn), the logP was 4.23.

In the case of COc1cccnc1CCCCNc1nc(=O)c(Cc2ccc(C)nc2)c[nH]1, the logP [2] is reported as 2.58.

Molecule COc1ccc2cc(C(C)C(=O)OCC(COC(=O)C(C)c3ccc4cc(OC)ccc4c3)OC(=O)C(C)c3ccc4cc(OC)ccc4c3)ccc2c1 (stereo not drawn) has a logP of 6.84.

CO[C@@H]1[C@@H](O[C@@H]2O[C@H](C)[C@@H](O[C@H]3C[C@@](C)(O)[C@@H](OC(=O)CC(C)C)[C@H](C)O3)[C@H](N(C)C)[C@H]2O)[C@@H](CC=O)C[C@@H](C)[C@@H](O)/C=C/C=C/C[C@@H](C)OC(=O)C[C@H]1O gave a logP [3] of 2.18.

In the case of CCc1ccc2c(c1)COCCOCCOCCOCCOCCOC2, the logP [4] is reported as 0.98.

For COc1cc(C=Cc2ccccn2)ccc1C=Cc1ccccn1, the logP [5] was 4.25.

Cc1cn(C2C=CC(COP3(=O)OCc4cc(Cl)ccc4O3)O2)c(=O)[nH]c1=O (stereo not drawn) gave a logD [6] of 0.88.

In the case of CC1=C(C(=O)Nc2nc3ccccc3s2)C(c2ccc(N(C)C)cc2)NC(=S)N1 (stereo not drawn), the logP [7] is reported as 2.22.

c1cc(CN2CCCCC2)cc(OCCCNc2nc3ccccc3s2)c1 gave a logP [2] of 5.41.

Molecule Cc1nnc(SCC2=C(C(=O)OCOC(=O)C(C)(C)C)N3C(=O)C(NC(=O)Cn4cnnn4)C3SC2)s1 (stereo not drawn) has a logD ([8]; pH 4.5) of 1.34.

With CCCCCCCCCCCCCCCc1cc(O)cc(O)c1 the logP [9] was 7.4.

Work on CCCCCCCC(=O)OC(CNC(C)C)COc1cccc2ccccc12 (stereo not drawn) yielded a logP [1] of 7.87.

With CNC(=O)c1c(I)c(O[C@@H]2O[C@H](CO)[C@@H](O)[C@H](O)[C@H]2O)c(I)c(O[C@@H]2O[C@H](CO)[C@@H](O)[C@H](O)[C@H]2O)c1I the logP [10] was -1.57.

CCCOc1ccc(C(=O)C2c3cccc(O)c3C(=O)c3c(O)cccc32)cc1 gave a logP [11] of 3.44.

For CC1=C(C(=O)Nc2nc3ccccc3s2)C(c2ccc(C(F)(F)F)cc2)NC(=S)N1 (stereo not drawn), the logP [7] was 2.92.

Work on CCOC(=O)OC(C)OC(=O)C1=CCSC2C(NC(=O)C(=NOC)c3csc(N)n3)C(=O)N12 (stereo not drawn) yielded a logD [12] of 0.96.

CCC(C(=O)OCC1CCCCC1)C(COC(=O)c1ccccc1)c1cncn1C (stereo not drawn) showed a logD [13] of 5.47.

Work on COc1cc(C=Cc2ccncc2)ccc1C=Cc1ccncc1 yielded a logP [5] of 3.73.

In the case of O=C(OC(C(F)(F)F)C(F)(F)F)N1CCN(Cc2cccc(Oc3ccccc3)c2)CC1, the logD [14] is reported as 5.

With COc1ccc2c(c1)c(CC(=O)OCN1C(=O)c3ccccc3C1=O)c(C)n2C(=O)c1ccc(Cl)cc1 the logD [15] was 5.64.

Work on CCCCCCCCCCCCCCCCCCCc1cc(O)cc(O)c1 yielded a logP [9] of 10.9.

For CCC(=O)OC1C(C)OC(OC2C(C)OC(OC3C(CC=O)CC(C)C(O)/C=C/C=C/CC(C)OC(=O)CC(OC(C)=O)C3OC)C(O)C2N(C)C)CC1(C)O (stereo not drawn), the logP [3] was 1.38.

With CN(C)Cc1ccc(CSCCNc2nc(=O)c(Cc3ccc4ccccc4c3)c[nH]2)o1 the logP [2] was 4.57.

COc1ccc(N2C(=O)CSC2=Nn2c(C)nc3ccccc3c2=O)cc1 gave a logD [16] of -1.23.

Molecule COc1cccc2c1OP(=O)(OC[C@@H]1C=C[C@H](n3cc(C)c(=O)[nH]c3=O)O1)OC2 (stereo partly drawn) has a logD [6] of 0.15.

CCNC(=O)Oc1cc(/C=C(\C#N)C(=O)N(CC)CC)cc([N+](=O)[O-])c1O gave a logD [17] of 0.82.

CCC(=O)OCC(c1cncn1C)C(CC)C(=O)OCC1CCCCC1 (stereo not drawn) gave a logD [13] of 4.4.

Work on COc1ccc(C(=O)C2c3cccc(O)c3C(=O)c3c(O)cccc32)cc1OC yielded a logP [11] of 3.45.

For CCCC(=O)OC(CNC(C)C)COc1cccc2ccccc12 (stereo not drawn), the logP [1] was 5.56.

Molecule OC(CCCN1CCC(C(O)(c2ccccc2)c2ccccc2)CC1)c1ccccc1 (stereo not drawn) has a logP [18] of 3.9.

With OCC1OC(Oc2cc(OC3OC(CO)C(O)C(O)C3O)c(I)cc2I)C(O)C(O)C1O (stereo not drawn) the logP [10] was -0.25.

O=C1NC(=O)C(c2ccccc2)(c2ccccc2)N1S(=O)(=O)c1ccc([N+](=O)[O-])cc1 gave a logP [19] of 4.04.

With c1ccc2c(c1)COCCOCCOCc1ccccc1COCCOC2 the logP [4] was 2.21.

In the case of Clc1ccc2c(c1)CCc1cccnc1C2=C1CCNCC1, the logP [18] is reported as 2.56.

Cc1nc2ccccc2c(=O)n1N=C1SCC(=O)N1c1ccc(F)cc1 gave a logD [16] of -1.36.

Work on CC(=O)OCC1=C(C(=O)OCOC(=O)C(C)(C)C)N2C(=O)C(NC(=O)CSc3ccncc3)C2SC1 (stereo not drawn) yielded a logD ([8]; pH 4.6) of 1.63.

For Cc1cccc2c1Oc1ccccc1C2NC(=O)CN(C)C (stereo not drawn), the logP [20] was 2.7.

With C(=Cc1ccccn1)c1ccc(C=Cc2ccccn2)cc1 the logP [5] was 3.75.

Molecule CCCCNC(=O)Oc1cc(/C=C(\C#N)C(=O)N(CC)CC)cc([N+](=O)[O-])c1O has a logD [17] of 1.98.

In the case of CC1=C(C(=O)Nc2nc3ccccc3s2)C(c2ccc(F)cc2)NC(=S)N1 (stereo not drawn), the logP [7] is reported as 2.18.

In the case of O=C1NC(=O)C(c2ccccc2)(c2ccccc2)N1S(=O)(=O)c1ccc(O)cc1, the logD ([19]; pH 7.0) is reported as 1.62.

For OCC1OC(Oc2c(I)cc(I)c(OC3OC(CO)C(O)C(O)C3O)c2I)C(O)C(O)C1O (stereo not drawn), the logP [10] was -0.74.

Work on CN1CCC(=C2c3ccccc3CCc3cccnc32)CC1 yielded a logP [18] of 3.59.

With Cc1cccc2c1Oc1cc(Cl)ccc1C2NC(=O)CN(C)C (stereo not drawn) the logP [20] was 3.44.

O=C1C(CCS(=O)(=O)c2ccccc2)C(=O)N(c2ccccc2)N1c1ccccc1 showed a logP [21] of 3.51.

In the case of CO/N=C(/C(=O)NC1C(=O)N2C(C(=O)OCc3oc(=O)oc3C)=CCSC12)c1csc(N)n1 (stereo not drawn), the logD [12] is reported as 0.17.

In the case of O=C1C(CCS(=O)c2ccccc2)C(=O)N(c2ccccc2)N1c1ccccc1 (stereo not drawn), the logP [21] is reported as 3.56.

CC1=C(CC(=O)O)c2cc(F)ccc2/C1=C/c1ccc(S(C)(=O)=O)cc1 showed a logP [21] of 3.29.

For COc1ccc2cc(C(C)C(=O)OCC(O)CO)ccc2c1 (stereo not drawn), the logP was 2.65.

In the case of CCCCN(C)C(=O)Cc1c(-c2ccccc2)nc2c(Cl)cc(Cl)cn12, the logD [22] is reported as 2.14.

Cc1cn(C2C=CC(COP3(=O)OCc4cc([N+](=O)[O-])ccc4O3)O2)c(=O)[nH]c1=O (stereo not drawn) gave a logD [6] of 0.18.

Work on CON=C(C(=O)NC1C(=O)N2C(C(=O)OCOC(=O)C(C)(C)C)=CCSC12)c1csc(N)n1 (stereo not drawn) yielded a logD [12] of 1.57.

Work on CCN(CC)C(=O)C(C#N)=Cc1cc(OC(=O)NC(C)(C)C)c(O)c([N+](=O)[O-])c1 yielded a logD [17] of 1.8.

For Nc1ccc(S(=O)(=O)N2C(=O)NC(=O)C2(c2ccccc2)c2ccccc2)cc1, the logP [19] was 3.27.

CC(C)(C)C(=O)OCOC(=O)C1=C(CSc2nncs2)CSC2C(NC(=O)Cn3cnnn3)C(=O)N12 (stereo not drawn) gave a logD ([8]; pH 4.6) of 1.45.

Work on O=C(N1CCC(C(c2ccc3c(c2)OCO3)c2ccc3c(c2)OCO3)CC1)n1cncn1 yielded a logD [14] of 3.32.

With CC(C)Cc1ccc(C(C)C(=O)OCN2C(=O)c3ccccc3C2=O)cc1 (stereo not drawn) the logD [15] was 5.36.

In the case of CCC(C(=O)OCC1CCCCC1)C(COC(C)=O)c1cncn1C (stereo not drawn), the logD [13] is reported as 3.86.

Cc1ccc(N2C(=O)CSC2=Nn2c(C)nc3ccccc3c2=O)cc1 gave a logD [16] of -1.12.

In the case of CC(=O)Oc1ccccc1C(=O)OCN1C(=O)c2ccccc2C1=O, the logD [15] is reported as 3.23.

CCN(CC)CC(=O)NC1c2ccccc2Oc2c(C)cccc21 (stereo not drawn) gave a logP [20] of 3.73.

Work on O=C(N1CCN(C(c2ccccc2)c2ccccc2)CC1)n1nnc2ccccc21 yielded a logD [14] of 3.61.

For CC(C)(C)c1ccc2c(c1)COCCOCCOCCOCCOCCOC2, the logP [4] was 1.71.

CCCCCCCCCCCCCCCCCc1cc(O)cc(O)c1 showed a logP [9] of 9.2.

CCCCN(C)C(=O)Cc1c(-c2ccc(Cl)cc2)nc2c(Cl)cc(Cl)cn12 gave a logD [22] of 2.2.

For CCCC1CC(C(=O)NC(C(C)O)C2OC(SC)C(O)C(O)C2O)N(C)C1 (stereo not drawn), the logP [3] was 0.2.

In the case of CN(C(=O)Cc1c(-c2ccc(Cl)cc2)nc2c(Cl)cc(Cl)cn12)c1ccccc1, the logD [22] is reported as 2.2.
